The results in this text go back to PMC8707700, “Ru(III) Complexes with Lonidamine-Modified Ligands” (International Journal of Molecular Sciences, 2021).

The series concerns Balb/c mice. Kind of series: In vivo acute toxicity. The note with it: for Drug-induced lethality, died/survived (n = 6): 21 days. The protocol: Finally, we tested the acute toxicity of complex 16 in Balb/c mice after a single bolus i.p. injection of the compound dissolved in saline. […] Animals were monitored for 21 days after injection. […] Mice in these cohorts had normal hair cover; no changes of nutritional behaviour were registered over the entire period of observation. In contrast, doses >80 mg/kg were lethal for individual animals. […] Deaths were registered over the next 1–2 days (Table 5). In each group, the survived animals remained without visible changes for up to 21 days after the injection of 16.
The Balb/c female mice (8–10 weeks old, weight 20–22 g) were bred and hosted at the animal facility of the Blokhin Cancer Center. Mice were kept at 21 ± 1 °C, 50–60% humidity; food and water were added ad libitum. All manipulations were performed in accordance to the European Convention for the Protection of Vertebrate Animals used for Experimental and other Scientific Purposes (ETS 123). Compound 16 was injected i.p.; 70–110 mg/kg single bolus administration in 200 µL of saline. Each cohort contained six mice. Animals were monitored for 21 days after injection. General behavioural activity, nutritional habits, and the integrity of hair cover were the criteria of acute toxicity.

Values joined by “and” are separate entries in the source; they are usually repeats but may differ in a detail not shown here. Identical values can stand only once.

Take “Na[trans-Ru(DMSO)(C21H19Cl2N5O)Cl4] [Compound 16]”: under “110 mg/kg i.p., initial 1–2 h after injection”, the “signs of acute toxicity” value was “Tremor and dyspnoea”. For the same substance, the “Drug-induced lethality, died/survived (n = 6)” value (single dose 70 mg/kg i.p., 70 mg/kg) was “no deaths and 0/6 *”; the “Drug-induced lethality, died/survived (n = 6)” value (single dose 80 mg/kg i.p., 80 mg/kg) is “no deaths and 0/6”; the “Drug-induced lethality, died/survived (n = 6)” value (single dose 90 mg/kg i.p.) was 2/6; the “Drug-induced lethality, died/survived (n = 6)” value (single dose 100 mg/kg i.p.) is 2/6; the “Drug-induced lethality, died/survived (n = 6)” value (single dose 110 mg/kg i.p.) is given as 4/6.
